This series has as its system white matter adjacent to the cerebellar nuclei, and the nuclei. Briefly: Vigabatrin-induced brain vacuolation in rats, histology of cerebellar sections scored by light microscopy. In kind it is in vivo, Wistar rats. Further details: key to vacuolation score (grade) of cerebellum: 1: No or occasional individual vacuoles in perinuclear white matter.; 2: Mild to moderate regional vacuolation of perinuclear white matter, sometimes extending into nucleus.; 3: Extensive, widespread vacuolation of perinuclear white matter, often with involvement of adjacent nuclear regions. Vacuolation may extend to folial white matter. The settings on record: for vacuolation score (grade) of cerebellum: blinded scoring; for vacuolation in the brain tissue (histological appearance): cerebellar sections. The method, then:
Animal treatments: As described previously (Duboc A. et al. 2004; Izumi Y. et al. 2004), Wistar rats Rj Wi IOPS Han were purchased from Janvier (Le Genest-St-Isle, France) at between six and seven weeks of age. vigabatrin dissolved in 0.9% NaC1 was administered at 40mg (125 mg/ml, 0.32m1) to rats by daily intraperitoneal injection for 65 days. These daily doses (rats: 200mg/kg) are in-line with those described for the treatment of epilepsy (adult patients: […]; children: 50-75mg/kg; or infants: 100-150 mg/kg) (Chiron C. et al. 1997; Lux AL. et al. 2004; Aicardi J. et al. 1996). Taurine supplementation was given in drinking water at a concentration of 0.1M.
Histology: Rats were anesthetized by intraperitoneal injection (0.8 to 1.2 ml/kg) of a solution containing ketamine (40 mg/ml) and xylazine (4 mg/ml Rompum). Rat heads were removed and an opening created in the calvarium. These were then immersion fixed in 4% buffered formol (T/02170015, MMFrance) and then placed in phosphate buffered saline. Brains were then removed from the skulls and placed in 10% neutral buffered formalin. Brains were trimmed and their cerebellar nuclei placed in 10% buffered formalin and embedded in paraffin. Sections of the cerebellar nuclei were stained with hematoxylin and eosin.
Vacuolation of cerebellum was assessed by light microscopy, with the region of emphasis being the white matter adjacent to the cerebellar nuclei, and the nuclei. Vacuolation was scored as follows.
1- No or occasional individual vacuoles in perinuclear white matter.
2- Mild to moderate regional vacuolation of perinuclear white matter, sometimes extending into nucleus.
3- Extensive, widespread vacuolation of perinuclear white matter, often with involvement of adjacent nuclear regions. Vacuolation may extend to folial white matter

Molecules are shown by their SMILES. Where “and” joins values, the source holds several entries; their conditions need not be identical. Equal entries are not always repeated. Entries after “also recorded” stand apart in the source; their conditions may differ.

We go through two molecules from patent US20110172171A1, “TAURINE OR TAURINE-LIKE SUBSTANCES FOR THE PREVENTION OF BRAIN OEDEMA” (priority 2008, published 2011).

`C=CC(N)CCC(=O)O` (stereo not shown) [vigabatrin, 4-amino-5-hexenoic acid, reference compound]: the “vacuolation score (grade) of cerebellum” value (rats, vigabatrin 40 mg (200mg/kg) daily intraperitoneal injection for 65 days, n=7) was 3. In addition, the “vacuolation in the brain tissue (histological appearance)” value (vigabatrin-treated rats, FIG. 1B) was “extensive; also recorded: a great number of vacuoles”.

For `NCCS(=O)(=O)O` [taurine, 2-aminoethanesulfonic acid], the “vacuolation score (grade) of cerebellum” value (vigabatrin-treated rats (200mg/kg daily i.p., 65 days) with taurine 0.1M in drinking water, n=7 (grade 1 n=3, grade 2 n=4), 200 mg/kg) was 1 and 2. Moreover, under “vigabatrin-treated rats supplemented with taurine (0.1M in drinking water), FIG. 1C”, the “vacuolation in the brain tissue (histological appearance)” value was “mild and vacuoles were present in some animals but appeared at a much lower density”.
